Measurements taken from US7521528B2, “Conformationally constrained parathyroid hormone (PTH) analogs with lactam bridges” (The General Hospital Corporation, priority 2003, dated 2009).
Non-standard residues stand in square brackets, D forms with d. Residues, ends and D or L forms follow the SMILES beside them. hArg = N=C(N)NCCCC[C@H](N)C(=O)O

Columns and labels:
[1] = molecular target: T1, recombinant full-length P1R (Homo sapiens, UniProt Q03431); test: cAMP stimulation in HKRK-B28 cells; type: cell-based; settings: for Emax at 1 µM: at 1×10^−6 M, percent of maximum response of PTH(1-34)
T1 construct: expressed in transfected cells
T1 sequence (Q03431 27-593): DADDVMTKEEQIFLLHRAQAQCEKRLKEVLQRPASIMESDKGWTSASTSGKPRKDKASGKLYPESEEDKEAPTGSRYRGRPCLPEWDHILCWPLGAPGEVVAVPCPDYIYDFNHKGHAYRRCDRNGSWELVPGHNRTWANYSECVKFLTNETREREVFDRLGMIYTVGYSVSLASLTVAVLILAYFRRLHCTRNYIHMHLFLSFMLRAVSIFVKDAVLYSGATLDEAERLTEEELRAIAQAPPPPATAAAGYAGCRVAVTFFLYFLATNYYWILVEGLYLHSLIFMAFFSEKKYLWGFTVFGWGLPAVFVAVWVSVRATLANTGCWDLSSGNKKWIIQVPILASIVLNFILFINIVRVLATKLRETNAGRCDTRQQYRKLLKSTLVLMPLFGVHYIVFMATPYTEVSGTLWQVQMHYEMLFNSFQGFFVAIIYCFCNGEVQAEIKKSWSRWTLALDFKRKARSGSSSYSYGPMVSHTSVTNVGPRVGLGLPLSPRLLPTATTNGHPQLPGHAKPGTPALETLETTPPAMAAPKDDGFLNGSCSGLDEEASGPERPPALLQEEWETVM
Procedure: (§1) Cell Culture. The cell line HKRK-B28 (Takasu, H., et al., J. Bone Miner. Res. 14:11-20 (1999)) was derived from the porcine kidney cell line, LLC-PK1 by stable transfection with plasmid DNA encoding the full-length P1R and expresses ˜280,000 receptors per cell. These cells, as well as COS-7 cells and SaOS-2-B10 cells, were cultured at […] in T-75 flasks ([…]) in Dulbecco's modified Eagle's medium (DMEM) supplemented with fetal bovine serum (10%), penicillin G (20 units/ml), streptomycin sulfate (20 μg/ml) and amphotericin B (0.05 μg/ml) in a humidified atmosphere containing 5% CO2. Stock solutions of EGTA/trypsin and antibiotics were from GIBCO; fetal bovine serum was from Hyclone Laboratories (Logan, Utah). COS-7 cells sub-cultured in 24-well plates were transfected with plasmid DNA (200 ng per well) encoding the wild-type human P1R or truncated human P1R deleted for residues (24-181) (Shimizu, M., et al., J. Biol. Chem. 275:21836-21843 (2000)) that was purified by cesium chloride/ethidium bromide density gradient centrifugation, and FuGENE 6 transfection reagent (Roche Indianapolis Ind.) according to the manufacturer's recommended procedure. All cells, in 24-well plates, were treated with fresh media and shifted to 33° C. for 12 to 24 h prior to assay.
(§2) cAMP Stimulation. Stimulation of cells with peptide analogs was performed in 24-well plates. Cells were rinsed with 0.5 mL of binding buffer (50 mM Tris-HCl, 100 mM NaCl, 5 mM KCl, 2 mM CaCl2, 5% heat-inactivated horse serum, 0.5% fetal bovine serum, adjusted to pH 7.5 with HCl) and treated with 200 μL of cAMP assay buffer (Delbecco's modified Eagle's medium containing 2 mM 3-isobutyl-1-methylxanthine, 1 mg/mL bovine serum albumin, 35 mM Hepes-NaOH, pH 7.4) and 100 μL of binding buffer containing varying amounts of peptide analog (final volume=300 μL). The medium was removed after incubation for 30 to 60 minutes at room temperature, and the cells were frozen on dry ice, lysed with 0.5 mL 50 mM HCl, and refrozen ([…]). The cAMP content of the diluted lysate was determined by radioimmunoassay. The EC50 response values were calculated using nonlinear regression (see below).
(§3) Data Calculation. Calculations were performed using Microsoft® Excel. Nonlinear regression analyses of binding and cAMP dose-response data were performed using the four-parameter equation: yp=Min+[(Max−Min)/(1+(IC50/x)^slope)]. The Excel Solver function was utilized for parameter optimization, as described previously (Carter, P. H., et al., Endocrinology 140: 4972-4981 (1999); Bowen, W. P., and Jerman, J. C., Trends in Pharmacol. Sci. 16: 413-417 (1995)). Differences between paired data sets were statistically evaluated using a one-tailed Student's t-test, assuming unequal variances for the two sets.
The effects of installing a direct covalent linkage between the side chains of the residues at positions 6 and 10 on PTH analog function were also assessed. To do this, paired Glu^6/Lys^10 or Lys^6/Glu^10 substitutions were introduced into an otherwise non-constrained PTH(1-14) analog scaffold AlaValAlaGluIleGln LeuMetHisGlnHarAlaLysTrp-amide (SEQ. ID. NO. 11) and formed an amide bond between the carboxylate side chain group of the introduced glutamate residue and the amino side chain group of the introduced lysine residue. For controls, a portion of each Glu/Lys- or Lys/Glu-substituted PTH(1-14) analog was preserved in the non-bridged form. The four peptides: [Glu^6, Lys^10]PTH(1-14)(linear)(SEQ. ID. NO. 24), [(Glu^6,Lys^10)lac.]PTH(1-14) cyclized via a 6-10 lactam bridge)(SEQ. ID. NO. 3), [Lys^6, Glu^10]PTH(1-14)(SEQ. ID. NO. 25), and [(Lys^6, Glu^10)lac.]PTH(1-14)(SEQ. ID. NO. 26) were first compared at a single dose of 10 μM for the capacity to stimulate cAMP formulation in HKRK-B28 cells, an LLC-PK1-derived cell line that expresses the recombinant full-length P1R at a moderate level (˜280,000 receptors per cell). […]

[2] = molecular target: T2, P1R (Homo sapiens, UniProt Q03431); test: cAMP stimulation in HKRK-B7 cells; type: cell-based; settings: for Emax: cAMP response, Table 1
T2 construct: expressed in transfected cells
T2 sequence (Q03431 27-593): T1 sequence (Q03431 27-593)
Procedure: as §2, §3
The functional effects of substitutions at positions 6 and 10 in PTH using a PTH(1-11) analog AlaValAlaGluIleGlnLeuMetHisGlnArg-amide as the scaffold peptide (SEQ. ID. NO. 8). The peptides were analyzed for the capacity to stimulate cAMP formation in HKRK-B7 cells, an LLC-PK1-derived cell line that expresses via stable transfection the recombinant human P1R at high density (˜950,000 receptors per cell).

[3] = molecular target: T3, P1R-DelNt (Homo sapiens, UniProt Q03431); test: cAMP stimulation in LdelNt-2 cells; type: cell-based; settings: for Emax: percent of maximum response of PTH(1-11)
T3 construct: expressed in transfected cells
T3 sequence (Q03431 with tags, fused parts or gaps limits assumed): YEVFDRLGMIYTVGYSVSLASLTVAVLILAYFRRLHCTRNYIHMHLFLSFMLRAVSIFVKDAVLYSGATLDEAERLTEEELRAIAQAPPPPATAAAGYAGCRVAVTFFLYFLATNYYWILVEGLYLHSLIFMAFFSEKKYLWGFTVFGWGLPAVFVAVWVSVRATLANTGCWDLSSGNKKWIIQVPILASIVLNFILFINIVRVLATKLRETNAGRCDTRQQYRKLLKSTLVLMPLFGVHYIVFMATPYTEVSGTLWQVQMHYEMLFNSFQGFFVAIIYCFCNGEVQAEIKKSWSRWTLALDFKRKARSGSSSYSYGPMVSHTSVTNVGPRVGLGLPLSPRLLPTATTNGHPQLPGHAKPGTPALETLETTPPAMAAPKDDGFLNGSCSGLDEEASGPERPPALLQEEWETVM
Procedure: as §2, §3
The two-domain hypothesis of the PTH-P1R interaction mechanism predicts that the effects of the substitutions at positions 6 and 10 observed with the above PTH(1-11) analogs involve interactions (direct or indirect) that occur within the juxtamembrane region of the receptor. To test this hypothesis, P1R-DelNt was utilized. P1R-DeNt is a P1R construct that is deleted for most of the N domain yet which retains nearly full capacity to be expressed on the cell surface and to stimulate cAMP formation in response to N-terminal PTH analogs, and an LLC-PK1-derived cell line was herein established, LdelNt-2, which stably expresses P1R-DelNt.

[4] = molecular target: T4, wild-type human P1R (Homo sapiens, UniProt Q03431); test: cAMP stimulation in COS-7 cells transiently transfected with P1R-WT; type: cell-based; settings: at 1×10^−6M, percent of maximum response of PTH(1-34) on P1R-WT
T4 construct: expressed in transfected cells; host or cells: COS-7 (transient transfection, FuGENE 6)
T4 sequence (Q03431 27-593): T1 sequence (Q03431 27-593)
Procedure: as §1
cAMP Stimulation. Stimulation of cells with peptide analogs was performed in 24-well plates. […] The cAMP content of the diluted lysate was determined by radioimmunoassay. The EC50 response values were calculated using nonlinear regression (see below).
Data Calculation. […] Differences between paired data sets were statistically evaluated using a one-tailed Student's t-test, assuming unequal variances for the two sets.
(§4) The peptide PTH(1-34)([Tyr^34]hPTH(1-34)NH2)(SEQ. ID. NO. 11) and analogs containing the indicated residues at positions 6 and/or 10 were evaluated for the capacity to stimulate cAMP accumulation in COS-7 cells transiently transfected with either the wild-type P1R(P1R-WT) or P1R-DelNt. […]

[5] = molecular target: T5, P1R-DelNt (truncated human P1R deleted for residues 24-181) (Homo sapiens, UniProt Q03431); test: cAMP stimulation in COS-7 cells transiently transfected with P1R-DelNt; type: cell-based; settings: for Emax: COS-7, at 1×10^−5, percent of maximum response of PTH(1-34) on P1R-WT
T5 construct: expressed in transfected cells; host or cells: COS-7 (transient transfection, FuGENE 6)
T5 sequence (Q03431 with tags, fused parts or gaps limits assumed): T3 sequence (Q03431 with tags, fused parts or gaps limits assumed)
Procedure: as §1, §2
Data Calculation. Calculations were performed using Microsoft® Excel. […] Differences between paired data sets were statistically evaluated using a one-tailed Student's t-test, assuming unequal variances for the two sets.
as §4

[6] = molecular target: T2, P1R; settings: cAMP-signaling, literature (Luck et al. 1999); cited from earlier work

Compound | Emax [2] | Emax [3] | Emax at 1 µM [1] | Emax at 1 µM [4] | Emax [5] | other results
CC[C@H](C)[C@H](NC(=O)[C@H](CCC(=O)O)NC(=O)[C@H](C)NC(=O)[C@@H](NC(=O)[C@H](C)N)C(C)C)C(=O)N[C@@H](CCCCN)C(=O)N[C@@H](CC(C)C)C(=O)N[C@@H](CCSC)C(=O)N[C@@H](Cc1c[nH]cn1)C(=O)N[C@@H](CCC(=O)O)C(=O)N[C@@H](CCCCNC(=N)N)C(=O)N[C@@H](C)C(=O)N[C@@H](CCCCN)C(=O)N[C@@H](Cc1c[nH]c2ccccc12)C(N)=O [[Lys^6, Glu^10]PTH(1-14)] (H-AVAEIKLMHE[hArg]AKW-NH2) |  |  |  |  |  | Emax ([1]; percent of maximum response of PTH(1-14), Table 3): 37 ± 5%
H-AVAEIALMHAR-NH2 [[Ala^6, Ala^10]PTH(1-11)] | 41 ± 2% | 42 ± 5% |  |  |  | potency relative to [Ala^6]PTH(1-11) [2]: two-fold greater; potency relative to [Ala^6]PTH(1-11) [3]: two-fold lower
H-AVAEIALMHQR-NH2 [[Ala^6]PTH(1-11)] | 26 ± 2% | 14 ± 2% |  |  |  | EC50/potency difference versus parent PTH(1-11) [3]: ~3 fold
H-AVAEIQLMHAR-NH2 [[Ala^10]PTH(1-11)] | 88 ± 5% | 79 ± 5% |  |  |  | 
H-AVAEIQLMHQR-NH2 [PTH(1-11)(SEQ. ID. NO. 8), AlaValAlaGluIleGlnLeuMetHisGlnArg-amide] | 100 ± 3% | 100 ± 2% |  |  |  | fold increase in cAMP formation [2]: 75 fold; EC50/potency difference versus parent PTH(1-11) [3]: 22 fold; fold increase in cAMP formation/accumulation [3]: 55 fold; maximum cAMP response observed ([3]; n=3): 113±4 pM of cAMP per well
H-SVSEIALMHALGKHLNSMERVEWLRKKLQDVHNY-NH2 [[Ala^6,10]PTH(1-34)] |  |  | 107 ± 8% | 121 ± 7% | 44 ± 2% | cAMP-signaling potency (in words) ([5]; COS-7 cells expressing P1R-DelNt): as potent as PTH(1-34)
H-SVSEIALMHNLGKHLNSMERVEWLRKKLQDVHNY-NH2 [[Ala^6]PTH(1-34)] |  |  | 105 ± 10% | 104 ± 2% | 4.5 ± 0.9% | 
H-SVSEIQLMHALGKHLNSMERVEWLRKKLQDVHNY-NH2 [[Ala^10]PTH(1-34)] |  |  | 106 ± 7% | 96 ± 4% | 46 ± 2% | 
PTH(1-34): first 34 amino acids of PTH, literature data |  |  |  |  |  | EC50 [6]: ~2 nM
